In ChEMBL document CHEMBL1154736, “Increasing selectivity of CC chemokine receptor 8 antagonists by engineering nondesolvation related interactions with the intended and off-target binding sites” (J Med Chem, 2009):
pIC50: −log10 of the molar value.

Assays:
[1] = molecular target: Voltage-gated inwardly rectifying potassium channel KCNH2 (Homo sapiens, UniProt Q12809, F656M); experiment: Inhibition of human recombinant ERG F656M mutant expressed in CHOK1 cells by whole-cell plate-based electrophysiology; conditions: cho-k1
[2] = molecular target: Voltage-gated inwardly rectifying potassium channel KCNH2 (Homo sapiens, UniProt Q12809, S624T); experiment: Inhibition of human recombinant ERG S624T mutant expressed in CHOK1 cells by whole-cell plate-based electrophysiology; conditions: cho-k1
[3] = molecular target: T1, Voltage-gated inwardly rectifying potassium channel KCNH2 (Homo sapiens, UniProt Q12809); experiment: Inhibition of wild type human ERG expressed in CHOK1 cells by whole-cell plate-based electrophysiology
[4] = molecular target: Voltage-gated inwardly rectifying potassium channel KCNH2 (Homo sapiens, UniProt Q12809, S624A); experiment: Inhibition of human recombinant ERG S624A mutant expressed in CHOK1 cells by whole-cell plate-based electrophysiology; conditions: cho-k1
[5] = molecular target: C-C chemokine receptor type 8 (Homo sapiens, UniProt P51685); experiment: Antagonist activity at human CCR8; format: functional
C-C chemokine receptor type 8, sequence (P51685 whole entry): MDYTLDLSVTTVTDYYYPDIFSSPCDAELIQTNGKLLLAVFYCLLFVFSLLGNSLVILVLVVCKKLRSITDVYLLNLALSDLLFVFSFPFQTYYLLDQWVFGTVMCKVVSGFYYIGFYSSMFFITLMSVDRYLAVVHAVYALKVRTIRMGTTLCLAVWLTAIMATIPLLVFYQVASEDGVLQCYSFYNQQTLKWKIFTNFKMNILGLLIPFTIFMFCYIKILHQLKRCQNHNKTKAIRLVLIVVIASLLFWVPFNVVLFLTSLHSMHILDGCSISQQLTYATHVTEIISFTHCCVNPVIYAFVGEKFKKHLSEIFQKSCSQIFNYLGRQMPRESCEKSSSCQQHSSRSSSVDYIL

[6] = molecular target: Voltage-gated inwardly rectifying potassium channel KCNH2 (Homo sapiens, UniProt Q12809, T623S); experiment: Inhibition of human recombinant ERG T623S mutant expressed in CHOK1 cells by whole-cell plate-based electrophysiology; conditions: cho-k1
[7] = molecular target: T1, Voltage-gated inwardly rectifying potassium channel KCNH2; experiment: Displacement of [3H]dofetilide from human recombinant ERG expressed in HEK293 cells by patch clamp method
[8] = molecular target: Voltage-gated inwardly rectifying potassium channel KCNH2 (Homo sapiens, UniProt Q12809, Y652A); experiment: Inhibition of human recombinant ERG Y652A mutant expressed in CHOK1 cells by whole-cell plate-based electrophysiology; conditions: cho-k1
[9] = Apparent n-Octanol-water partition coefficient, log D at pH 7.4 by HPLC analysis
[10] = molecular target: Voltage-gated inwardly rectifying potassium channel KCNH2 (Homo sapiens, UniProt Q12809, F656T); experiment: Inhibition of human recombinant ERG F656T mutant expressed in CHOK1 cells by whole-cell plate-based electrophysiology; conditions: cho-k1
[11] = molecular target: Voltage-gated inwardly rectifying potassium channel KCNH2 (Homo sapiens, UniProt Q12809, F656W); experiment: Inhibition of human recombinant ERG F656W mutant expressed in CHOK1 cells by whole-cell plate-based electrophysiology; conditions: cho-k1
[12] = molecular target: Voltage-gated inwardly rectifying potassium channel KCNH2 (Homo sapiens, UniProt Q12809, Y652F); experiment: Inhibition of human recombinant ERG Y652F mutant expressed in CHOK1 cells by whole-cell plate-based electrophysiology; conditions: cho-k1

Row | Structure (SMILES) | delta pIC50 wt-mutant [1] | delta pIC50 wt-mutant [2] | pIC50 [3] | delta pIC50 wt-mutant [4] | pIC50 [5] | delta pIC50 wt-mutant [6] | pIC50 [7] | delta pIC50 wt-mutant [8] | logD [9] | delta pIC50 wt-mutant [10] | delta pIC50 wt-mutant [11] | delta pIC50 wt-mutant [12]
1 | CC1(C)Cc2c(CN3CCC4(CC3)CCN(C(=O)c3ccc(N)cn3)CC4)cccc2O1 | -0.22 | 0.31 | 4.78 | 0.79 | 8.09 | 0.49 | 4.89 | 1.23 | 1.3 | 0.2 | -0.66 | 0.68
2 | CC1(C)Oc2c(CN3CCC4(CC3)CCN(C(=O)c3ccc(N)cn3)CC4)cccc2C1(F)F | -0.49 | -0.62 | 4.51 | 0.36 | 8.58 | 0.01 | 4.32 | 0.87 | 2.3 | -0.17 | -1.07 | 0.02
